Test results published in ChEMBL document CHEMBL1150977, “A quantitative analysis of kinase inhibitor selectivity” (Nat Biotechnol, 2008).

Legend:
[1] = biological target: Cyclin-dependent kinase 18 (Homo sapiens, UniProt Q07002)
[2] = biological target: T1, Aurora kinase A (Homo sapiens, UniProt O14965)
T1 sequence (O14965 whole entry): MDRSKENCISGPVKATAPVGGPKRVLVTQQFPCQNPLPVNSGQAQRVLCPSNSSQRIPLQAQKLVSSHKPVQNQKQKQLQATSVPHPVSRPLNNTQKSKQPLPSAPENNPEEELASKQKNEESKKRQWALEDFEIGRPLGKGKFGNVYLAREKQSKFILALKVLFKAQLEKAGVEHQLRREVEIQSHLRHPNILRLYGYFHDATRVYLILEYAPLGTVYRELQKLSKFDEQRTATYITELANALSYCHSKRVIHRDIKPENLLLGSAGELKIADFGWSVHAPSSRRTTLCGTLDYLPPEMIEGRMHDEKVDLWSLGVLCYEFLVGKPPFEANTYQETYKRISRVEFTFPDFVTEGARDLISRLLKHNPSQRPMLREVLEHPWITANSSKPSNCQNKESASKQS

[3] = biological target: Fibroblast growth factor receptor 2 (Homo sapiens, UniProt P21802)
Fibroblast growth factor receptor 2, sequence (P21802 whole entry): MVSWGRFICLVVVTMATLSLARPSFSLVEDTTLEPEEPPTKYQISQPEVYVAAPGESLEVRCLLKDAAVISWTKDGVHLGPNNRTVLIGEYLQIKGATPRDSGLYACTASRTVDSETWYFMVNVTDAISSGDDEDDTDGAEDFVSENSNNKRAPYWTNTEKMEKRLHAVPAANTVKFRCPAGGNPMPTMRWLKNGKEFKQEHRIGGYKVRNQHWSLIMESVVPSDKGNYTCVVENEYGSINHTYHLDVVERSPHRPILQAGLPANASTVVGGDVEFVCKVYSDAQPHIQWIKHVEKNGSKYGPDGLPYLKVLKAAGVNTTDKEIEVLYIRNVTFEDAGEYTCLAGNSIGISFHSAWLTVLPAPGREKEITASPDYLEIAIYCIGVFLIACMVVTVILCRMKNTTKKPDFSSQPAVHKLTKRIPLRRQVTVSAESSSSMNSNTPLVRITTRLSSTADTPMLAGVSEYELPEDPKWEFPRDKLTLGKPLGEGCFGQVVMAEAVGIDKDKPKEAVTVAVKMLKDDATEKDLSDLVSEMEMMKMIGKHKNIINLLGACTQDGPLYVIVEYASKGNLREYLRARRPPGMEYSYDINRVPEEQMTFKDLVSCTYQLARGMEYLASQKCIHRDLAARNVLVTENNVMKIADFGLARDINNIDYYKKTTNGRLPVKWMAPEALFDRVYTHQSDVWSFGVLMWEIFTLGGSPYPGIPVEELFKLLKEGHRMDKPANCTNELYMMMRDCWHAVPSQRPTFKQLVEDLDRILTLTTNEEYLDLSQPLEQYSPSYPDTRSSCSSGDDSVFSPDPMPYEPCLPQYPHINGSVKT

[4] = biological target: T2, Tyrosine-protein kinase ZAP-70 (Homo sapiens, UniProt P43403)
T2 sequence (P43403 whole entry): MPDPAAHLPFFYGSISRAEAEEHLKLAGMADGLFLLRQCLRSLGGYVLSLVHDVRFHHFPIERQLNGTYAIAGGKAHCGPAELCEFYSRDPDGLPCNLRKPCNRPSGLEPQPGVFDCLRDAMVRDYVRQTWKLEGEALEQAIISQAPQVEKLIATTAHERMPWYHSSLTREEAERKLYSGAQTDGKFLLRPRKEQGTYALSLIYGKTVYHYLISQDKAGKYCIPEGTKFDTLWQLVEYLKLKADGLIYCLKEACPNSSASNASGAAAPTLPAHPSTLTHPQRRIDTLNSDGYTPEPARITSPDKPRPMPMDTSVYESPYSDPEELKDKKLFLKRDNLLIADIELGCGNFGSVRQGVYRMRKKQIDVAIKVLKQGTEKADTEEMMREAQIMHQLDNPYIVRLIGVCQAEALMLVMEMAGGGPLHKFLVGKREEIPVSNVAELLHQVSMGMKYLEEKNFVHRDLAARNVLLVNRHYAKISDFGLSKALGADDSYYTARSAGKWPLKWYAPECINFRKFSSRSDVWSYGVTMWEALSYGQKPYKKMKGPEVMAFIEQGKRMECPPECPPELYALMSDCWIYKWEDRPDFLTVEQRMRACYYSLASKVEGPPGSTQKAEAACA

[5] = biological target: T3, Tyrosine-protein kinase Mer (Homo sapiens, UniProt Q12866)
T3 sequence (Q12866 whole entry): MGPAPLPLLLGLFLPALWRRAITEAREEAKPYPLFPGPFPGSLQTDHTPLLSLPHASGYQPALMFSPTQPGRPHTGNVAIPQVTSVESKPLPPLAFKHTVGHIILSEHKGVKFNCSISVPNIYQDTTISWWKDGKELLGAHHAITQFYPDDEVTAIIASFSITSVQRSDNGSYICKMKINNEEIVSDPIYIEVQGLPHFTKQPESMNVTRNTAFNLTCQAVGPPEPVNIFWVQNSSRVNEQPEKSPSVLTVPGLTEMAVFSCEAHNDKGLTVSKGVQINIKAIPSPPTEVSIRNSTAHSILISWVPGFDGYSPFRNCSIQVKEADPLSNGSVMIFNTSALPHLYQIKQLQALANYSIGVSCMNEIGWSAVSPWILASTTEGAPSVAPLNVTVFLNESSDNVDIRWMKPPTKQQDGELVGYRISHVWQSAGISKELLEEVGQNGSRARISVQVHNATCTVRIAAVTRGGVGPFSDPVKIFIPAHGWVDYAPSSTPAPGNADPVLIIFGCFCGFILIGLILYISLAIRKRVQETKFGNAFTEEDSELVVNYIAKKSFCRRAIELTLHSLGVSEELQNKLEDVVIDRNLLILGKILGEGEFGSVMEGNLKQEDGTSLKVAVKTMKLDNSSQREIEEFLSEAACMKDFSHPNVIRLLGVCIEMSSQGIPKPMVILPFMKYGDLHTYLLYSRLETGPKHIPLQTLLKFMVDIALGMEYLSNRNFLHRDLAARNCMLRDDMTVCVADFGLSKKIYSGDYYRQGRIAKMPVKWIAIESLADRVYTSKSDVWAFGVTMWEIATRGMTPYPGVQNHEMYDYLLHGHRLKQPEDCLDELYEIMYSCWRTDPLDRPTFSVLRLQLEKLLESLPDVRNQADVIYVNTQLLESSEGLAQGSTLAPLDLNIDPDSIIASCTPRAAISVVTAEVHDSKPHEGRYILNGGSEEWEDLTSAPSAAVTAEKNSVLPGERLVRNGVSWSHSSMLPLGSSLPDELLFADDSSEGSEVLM

[6] = biological target: Epithelial discoidin domain-containing receptor 1 (Homo sapiens, UniProt Q08345)
Epithelial discoidin domain-containing receptor 1, sequence (Q08345 whole entry, the tested form may be a part): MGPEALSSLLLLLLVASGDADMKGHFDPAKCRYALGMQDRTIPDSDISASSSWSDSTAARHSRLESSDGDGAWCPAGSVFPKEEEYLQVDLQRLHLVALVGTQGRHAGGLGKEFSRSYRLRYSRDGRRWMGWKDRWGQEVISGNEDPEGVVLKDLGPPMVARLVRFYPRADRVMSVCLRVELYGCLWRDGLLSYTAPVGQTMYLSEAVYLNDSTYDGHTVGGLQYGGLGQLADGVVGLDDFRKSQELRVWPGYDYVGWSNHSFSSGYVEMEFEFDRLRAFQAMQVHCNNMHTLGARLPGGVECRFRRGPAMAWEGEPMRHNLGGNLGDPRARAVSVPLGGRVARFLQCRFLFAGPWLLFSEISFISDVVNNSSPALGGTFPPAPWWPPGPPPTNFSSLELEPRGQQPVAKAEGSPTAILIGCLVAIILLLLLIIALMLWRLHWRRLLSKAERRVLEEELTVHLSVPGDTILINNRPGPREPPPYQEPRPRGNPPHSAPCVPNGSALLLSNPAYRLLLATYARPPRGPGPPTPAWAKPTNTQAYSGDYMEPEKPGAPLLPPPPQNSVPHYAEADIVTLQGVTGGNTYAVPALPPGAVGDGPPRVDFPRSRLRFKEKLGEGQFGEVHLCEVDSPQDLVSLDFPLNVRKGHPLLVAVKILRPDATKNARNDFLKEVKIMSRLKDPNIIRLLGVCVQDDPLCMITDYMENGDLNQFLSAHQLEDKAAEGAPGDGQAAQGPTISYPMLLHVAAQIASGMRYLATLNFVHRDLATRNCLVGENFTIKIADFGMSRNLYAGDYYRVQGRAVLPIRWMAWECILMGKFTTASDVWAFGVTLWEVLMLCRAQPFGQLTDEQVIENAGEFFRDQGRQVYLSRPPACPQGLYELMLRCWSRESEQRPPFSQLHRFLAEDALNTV

[7] = biological target: Serine/threonine-protein kinase 25 (Homo sapiens, UniProt O00506)
Serine/threonine-protein kinase 25, sequence (O00506 whole entry): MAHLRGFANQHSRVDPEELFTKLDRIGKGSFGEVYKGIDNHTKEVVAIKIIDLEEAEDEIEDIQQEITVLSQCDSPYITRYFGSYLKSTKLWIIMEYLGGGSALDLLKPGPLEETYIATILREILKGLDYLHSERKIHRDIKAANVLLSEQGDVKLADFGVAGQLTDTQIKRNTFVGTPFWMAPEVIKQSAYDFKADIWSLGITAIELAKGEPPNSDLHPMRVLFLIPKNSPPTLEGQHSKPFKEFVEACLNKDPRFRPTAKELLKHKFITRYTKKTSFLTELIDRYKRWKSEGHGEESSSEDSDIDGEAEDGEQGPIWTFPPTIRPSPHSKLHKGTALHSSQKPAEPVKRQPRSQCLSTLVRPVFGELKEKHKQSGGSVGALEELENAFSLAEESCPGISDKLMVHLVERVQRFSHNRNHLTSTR

Measured: Kd

Cyclin-dependent kinase 18, sequence (Q07002 whole entry): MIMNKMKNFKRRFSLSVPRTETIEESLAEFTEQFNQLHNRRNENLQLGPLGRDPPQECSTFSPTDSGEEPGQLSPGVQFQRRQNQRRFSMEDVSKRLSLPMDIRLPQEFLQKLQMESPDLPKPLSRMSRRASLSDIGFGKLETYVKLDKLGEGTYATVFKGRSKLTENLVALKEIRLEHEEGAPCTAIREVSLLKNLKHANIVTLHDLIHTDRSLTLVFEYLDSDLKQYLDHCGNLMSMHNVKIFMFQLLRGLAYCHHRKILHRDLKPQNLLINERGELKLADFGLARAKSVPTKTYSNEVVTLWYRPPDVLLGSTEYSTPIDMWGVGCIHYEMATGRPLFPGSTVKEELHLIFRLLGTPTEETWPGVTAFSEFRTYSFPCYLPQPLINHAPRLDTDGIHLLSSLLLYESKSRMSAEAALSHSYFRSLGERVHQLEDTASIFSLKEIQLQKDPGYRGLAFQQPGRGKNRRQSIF

CCOc1cc2ncc(C#N)c(Nc3ccc(F)c(Cl)c3)c2cc1NC(=O)/C=C/CN(C)C [PELITINIB]
1.3 µM: [5]
not listed: [7]
> 10 µM: all other assays above

COCC(=O)NC/C=C/c1ccc2ncnc(Nc3ccc(Oc4ccc(C)nc4)c(C)c3)c2c1 [CP-724714]
> 10 µM: all assays above

NC(=O)c1ccc(-c2nc(-c3ccc4c(c3)OCO4)c(-c3ccccn3)[nH]2)cc1 [SB-431542]
> 10 µM: all assays above

Nc1nc(Nc2ccc(S(N)(=O)=O)cc2)nn1C(=O)c1c(F)cccc1F [JNJ-7706621]
> 10 µM: [4] | [6]
0.36 µM: [7]

Oc1ccc(-c2nc(-c3ccncc3)c(-c3ccc(F)cc3)[nH]2)cc1 [SB-202190]
not listed: [6]
> 10 µM: all other assays above
